Species on record: Rattus norvegicus
Assay: DrugMatrix - Regimen: Daily Repeat
Format: toxicity, organism-based, Sprague-Dawley
Design: regimen Daily Repeat, gender Male, age 6-8 weeks
Settings: in vivo, sc, route subcutaneous, […]; for ALANINE AMINOTRANSFERASE / ALKALINE PHOSPHATASE / ASPARTATE AMINOTRANSFERASE / BLOOD UREA NITROGEN / CARBON DIOXIDE / CHOLESTEROL / CREATINE PHOSPHOKINASE / CREATININE / GLUCOSE / LACTATE DEHYDROGENASE / LIPASE / PHOSPHORUS / POTASSIUM / TOTAL BILIRUBIN / TOTAL PROTEIN / URIC ACID / ALBUMIN / CHLORIDE: tissue Plasma
[1] = 0 mg/kg, 72 h, tissue Blood, dose level Control, time 3 day
[2] = 0 mg/kg, 72 h, dose level Control, time 3 day
[3] = 0 mg/kg, 120 h, tissue Blood, dose level Control, time 5 day
[4] = 0 mg/kg, 120 h, dose level Control, time 5 day
[5] = 10 mg/kg, 72 h, tissue Blood, dose level Low, time 3 day
[6] = 10 mg/kg, 72 h, dose level Low, time 3 day
[7] = 10 mg/kg, 120 h, tissue Blood, dose level Low, time 5 day
[8] = 10 mg/kg, 120 h, dose level Low, time 5 day
[9] = 100 mg/kg, 72 h, tissue Blood, dose level High, time 3 day
[10] = 100 mg/kg, 72 h, dose level High, time 3 day
[11] = 100 mg/kg, 120 h, tissue Blood, dose level High, time 5 day
[12] = 100 mg/kg, 120 h, dose level High, time 5 day

COBALT(II) ACETYLACETONATE
ABSOLUTE BASOPHIL [1]: 0 CELLS/uL
ABSOLUTE EOSINOPHIL [1]: 42.67 CELLS/uL
ABSOLUTE LYMPHOCYTE [1]: 10202 CELLS/uL
ABSOLUTE MONOCYTE [1]: 261.5 CELLS/uL
ABSOLUTE SEGMENTED NEUTROPHIL [1]: 2193.83 CELLS/uL
BASOPHIL [1]: 0%
EOSINOPHIL [1]: 0.33%
ERYTHROCYTE COUNT [1]: 5.63 x10E6/uL
HEMATOCRIT [1]: 35.35%
HEMOGLOBIN [1]: 13.07 G/DL
LEUKOCYTE COUNT [1]: 12.7 x10E3/uL
LYMPHOCYTE [1]: 81.17%
MEAN CORPUSCULAR HEMOGLOBIN [1]: 23.23 pg
MEAN CORPUSCULAR HEMOGLOBIN CONCENTRATION [1]: 36.97 G/DL
MONOCYTE [1]: 2%
NUCLEATED RED BLOOD CELLS [1]: 0 /100WBC
PLATELET COUNT [1]: 1180.33 x10E3/uL
ALANINE AMINOTRANSFERASE [2]: 48.67 u/L
ALKALINE PHOSPHATASE [2]: 360.67 u/L
ASPARTATE AMINOTRANSFERASE [2]: 85.5 u/L
BLOOD UREA NITROGEN [2]: 17.83 mg/dL
CARBON DIOXIDE [2]: 26.17 mmol/L
CHOLESTEROL [2]: 71 mg/dL
CREATINE PHOSPHOKINASE [2]: 515.17 u/L
CREATININE [2]: 0.22 mg/dL
GLUCOSE [2]: 192.5 mg/dL
LACTATE DEHYDROGENASE [2]: 214.67 u/L
LIPASE [2]: 8.5 u/L
PHOSPHORUS [2]: 12.95 mg/dL
POTASSIUM [2]: 6.39 MEQ/L
TOTAL BILIRUBIN [2]: 0.18 mg/dL
TOTAL PROTEIN [2]: 5.95 G/DL
ABSOLUTE BASOPHIL [3]: 0 CELLS/uL
ABSOLUTE EOSINOPHIL [3]: 188.5 CELLS/uL
ABSOLUTE LYMPHOCYTE [3]: 12360.83 CELLS/uL
ABSOLUTE MONOCYTE [3]: 64.33 CELLS/uL
ABSOLUTE SEGMENTED NEUTROPHIL [3]: 1986.33 CELLS/uL
BASOPHIL [3]: 0%
ERYTHROCYTE COUNT [3]: 5.52 x10E6/uL
HEMOGLOBIN [3]: 13.25 G/DL
LEUKOCYTE COUNT [3]: 14.6 x10E3/uL
LYMPHOCYTE [3]: 84.5%
MEAN CORPUSCULAR HEMOGLOBIN [3]: 24.05 pg
MEAN CORPUSCULAR HEMOGLOBIN CONCENTRATION [3]: 36.98 G/DL
MEAN CORPUSCULAR VOLUME [3]: 64.97 fL
MONOCYTE [3]: 0.5%
NEUTROPHIL [3]: 13.67%
NUCLEATED RED BLOOD CELLS [3]: 0 /100WBC
PLATELET COUNT [3]: 1297.83 x10E3/uL
ALANINE AMINOTRANSFERASE [4]: 51.17 u/L
ALKALINE PHOSPHATASE [4]: 393.17 u/L
ASPARTATE AMINOTRANSFERASE [4]: 111 u/L
BLOOD UREA NITROGEN [4]: 18.17 mg/dL
CARBON DIOXIDE [4]: 25 mmol/L
CHOLESTEROL [4]: 65.5 mg/dL
CREATINE PHOSPHOKINASE [4]: 911.5 u/L
CREATININE [4]: 0.21 mg/dL
GLUCOSE [4]: 183 mg/dL
LACTATE DEHYDROGENASE [4]: 189 u/L
LIPASE [4]: 8.33 u/L
PHOSPHORUS [4]: 12.78 mg/dL
POTASSIUM [4]: 6.05 MEQ/L
TOTAL BILIRUBIN [4]: 0.25 mg/dL
TOTAL PROTEIN [4]: 5.83 G/DL
URIC ACID [4]: 1.58 mg/dL
ABSOLUTE BASOPHIL [5]: 0 CELLS/uL
ABSOLUTE EOSINOPHIL [5]: 159.33 CELLS/uL
ABSOLUTE MONOCYTE [5]: 0 CELLS/uL
ABSOLUTE SEGMENTED NEUTROPHIL [5]: 812 CELLS/uL
BASOPHIL [5]: 0%
ERYTHROCYTE COUNT [5]: 5.08 x10E6/uL
HEMATOCRIT [5]: 32.57%
HEMOGLOBIN [5]: 12.17 G/DL
LEUKOCYTE COUNT [5]: 12.37 x10E3/uL
LYMPHOCYTE [5]: 92%
MEAN CORPUSCULAR HEMOGLOBIN [5]: 23.97 pg
MEAN CORPUSCULAR HEMOGLOBIN CONCENTRATION [5]: 37.37 G/DL
MONOCYTE [5]: 0%
NEUTROPHIL [5]: 6.67%
NUCLEATED RED BLOOD CELLS [5]: 0 /100WBC
PLATELET COUNT [5]: 1184.33 x10E3/uL
ALANINE AMINOTRANSFERASE [6]: 47.67 u/L
ALKALINE PHOSPHATASE [6]: 375.67 u/L
ASPARTATE AMINOTRANSFERASE [6]: 80 u/L
CARBON DIOXIDE [6]: 27 mmol/L
CHOLESTEROL [6]: 76 mg/dL
CREATINE PHOSPHOKINASE [6]: 254.67 u/L
CREATININE [6]: 0.19 mg/dL
GLUCOSE [6]: 171.67 mg/dL
LACTATE DEHYDROGENASE [6]: 104.33 u/L
LIPASE [6]: 8.33 u/L
PHOSPHORUS [6]: 11.6 mg/dL
TOTAL BILIRUBIN [6]: 0.13 mg/dL
TOTAL PROTEIN [6]: 5.73 G/DL
ABSOLUTE BASOPHIL [7]: 0 CELLS/uL
ABSOLUTE EOSINOPHIL [7]: 119 CELLS/uL
ABSOLUTE MONOCYTE [7]: 35.33 CELLS/uL
ABSOLUTE SEGMENTED NEUTROPHIL [7]: 1425 CELLS/uL
BASOPHIL [7]: 0%
EOSINOPHIL [7]: 1%
ERYTHROCYTE COUNT [7]: 5.83 x10E6/uL
HEMATOCRIT [7]: 36.63%
HEMOGLOBIN [7]: 13.67 G/DL
LEUKOCYTE COUNT [7]: 11.87 x10E3/uL
LYMPHOCYTE [7]: 86.67%
MEAN CORPUSCULAR HEMOGLOBIN [7]: 23.47 pg
MEAN CORPUSCULAR HEMOGLOBIN CONCENTRATION [7]: 37.3 G/DL
MONOCYTE [7]: 0.33%
NEUTROPHIL [7]: 12%
NUCLEATED RED BLOOD CELLS [7]: 0 /100WBC
PLATELET COUNT [7]: 1357.67 x10E3/uL
ALANINE AMINOTRANSFERASE [8]: 36.67 u/L
ALBUMIN [8]: 4.6 G/DL
ALKALINE PHOSPHATASE [8]: 390 u/L
ASPARTATE AMINOTRANSFERASE [8]: 87 u/L
BLOOD UREA NITROGEN [8]: 22 mg/dL
CARBON DIOXIDE [8]: 21.67 mmol/L
CHOLESTEROL [8]: 77 mg/dL
CREATINE PHOSPHOKINASE [8]: 460.67 u/L
CREATININE [8]: 0.24 mg/dL
GLUCOSE [8]: 176.67 mg/dL
LACTATE DEHYDROGENASE [8]: 122.67 u/L
PHOSPHORUS [8]: 13.67 mg/dL
POTASSIUM [8]: 6.74 MEQ/L
TOTAL BILIRUBIN [8]: 0.2 mg/dL
TOTAL PROTEIN [8]: 6.7 G/DL
URIC ACID [8]: 2.8 mg/dL
ABSOLUTE BASOPHIL [9]: 0 CELLS/uL
ABSOLUTE EOSINOPHIL [9]: 73 CELLS/uL
ABSOLUTE LYMPHOCYTE [9]: 8659.67 CELLS/uL
ABSOLUTE MONOCYTE [9]: 133.33 CELLS/uL
ABSOLUTE SEGMENTED NEUTROPHIL [9]: 2500.67 CELLS/uL
BASOPHIL [9]: 0%
EOSINOPHIL [9]: 0.67%
ERYTHROCYTE COUNT [9]: 5.76 x10E6/uL
HEMOGLOBIN [9]: 13.3 G/DL
LEUKOCYTE COUNT [9]: 11.37 x10E3/uL
LYMPHOCYTE [9]: 75.67%
MEAN CORPUSCULAR HEMOGLOBIN [9]: 23.1 pg
MEAN CORPUSCULAR HEMOGLOBIN CONCENTRATION [9]: 37.2 G/DL
MONOCYTE [9]: 1%
NEUTROPHIL [9]: 22.67%
NUCLEATED RED BLOOD CELLS [9]: 0 /100WBC
PLATELET COUNT [9]: 1207 x10E3/uL
ALANINE AMINOTRANSFERASE [10]: 57.33 u/L
ALKALINE PHOSPHATASE [10]: 376.67 u/L
ASPARTATE AMINOTRANSFERASE [10]: 106 u/L
BLOOD UREA NITROGEN [10]: 17.67 mg/dL
CARBON DIOXIDE [10]: 26.33 mmol/L
CHLORIDE [10]: 109 MEQ/L
CHOLESTEROL [10]: 52.33 mg/dL
CREATINE PHOSPHOKINASE [10]: 315 u/L
CREATININE [10]: 0.2 mg/dL
LACTATE DEHYDROGENASE [10]: 200 u/L
LIPASE [10]: 9 u/L
PHOSPHORUS [10]: 10.3 mg/dL
POTASSIUM [10]: 5.87 MEQ/L
TOTAL BILIRUBIN [10]: 0.2 mg/dL
TOTAL PROTEIN [10]: 6 G/DL
URIC ACID [10]: 0.97 mg/dL
ABSOLUTE BASOPHIL [11]: 0 CELLS/uL
ABSOLUTE EOSINOPHIL [11]: 235.33 CELLS/uL
ABSOLUTE LYMPHOCYTE [11]: 15696 CELLS/uL
ABSOLUTE SEGMENTED NEUTROPHIL [11]: 4063 CELLS/uL
BASOPHIL [11]: 0%
ERYTHROCYTE COUNT [11]: 5.59 x10E6/uL
HEMATOCRIT [11]: 34.73%
HEMOGLOBIN [11]: 13.17 G/DL
LEUKOCYTE COUNT [11]: 20.17 x10E3/uL
LYMPHOCYTE [11]: 77%
MEAN CORPUSCULAR HEMOGLOBIN [11]: 23.57 pg
MEAN CORPUSCULAR HEMOGLOBIN CONCENTRATION [11]: 37.9 G/DL
MONOCYTE [11]: 1%
NEUTROPHIL [11]: 20.67%
NUCLEATED RED BLOOD CELLS [11]: 0 /100WBC
PLATELET COUNT [11]: 1455 x10E3/uL
ALANINE AMINOTRANSFERASE [12]: 47.67 u/L
ALBUMIN [12]: 3.9 G/DL
ALKALINE PHOSPHATASE [12]: 334.67 u/L
ASPARTATE AMINOTRANSFERASE [12]: 110.33 u/L
BLOOD UREA NITROGEN [12]: 19 mg/dL
CARBON DIOXIDE [12]: 16 mmol/L
CHLORIDE [12]: 111.67 MEQ/L
CHOLESTEROL [12]: 47.67 mg/dL
CREATINE PHOSPHOKINASE [12]: 488.33 u/L
CREATININE [12]: 0.18 mg/dL
LACTATE DEHYDROGENASE [12]: 467.33 u/L
LIPASE [12]: 8.33 u/L
PHOSPHORUS [12]: 12.73 mg/dL
POTASSIUM [12]: 7.45 MEQ/L
TOTAL BILIRUBIN [12]: 0.23 mg/dL
TOTAL PROTEIN [12]: 6.1 G/DL
URIC ACID [12]: 3.1 mg/dL

Reference: ChEMBL document CHEMBL3885881, “DrugMatrix”
